The text below walks through data of PMC11788324, “4,6-Disubstituted pyrimidine-based microtubule affinity-regulating kinase 4 (MARK4) inhibitors: synthesis, characterization, in-vitro activity and in-silico studies” (Frontiers in Pharmacology, 2025).

Assay [1] concerns the target T1, MARK4 (Homo sapiens, UniProt Q96L34).
T1 sequence (Q96L34 1-752): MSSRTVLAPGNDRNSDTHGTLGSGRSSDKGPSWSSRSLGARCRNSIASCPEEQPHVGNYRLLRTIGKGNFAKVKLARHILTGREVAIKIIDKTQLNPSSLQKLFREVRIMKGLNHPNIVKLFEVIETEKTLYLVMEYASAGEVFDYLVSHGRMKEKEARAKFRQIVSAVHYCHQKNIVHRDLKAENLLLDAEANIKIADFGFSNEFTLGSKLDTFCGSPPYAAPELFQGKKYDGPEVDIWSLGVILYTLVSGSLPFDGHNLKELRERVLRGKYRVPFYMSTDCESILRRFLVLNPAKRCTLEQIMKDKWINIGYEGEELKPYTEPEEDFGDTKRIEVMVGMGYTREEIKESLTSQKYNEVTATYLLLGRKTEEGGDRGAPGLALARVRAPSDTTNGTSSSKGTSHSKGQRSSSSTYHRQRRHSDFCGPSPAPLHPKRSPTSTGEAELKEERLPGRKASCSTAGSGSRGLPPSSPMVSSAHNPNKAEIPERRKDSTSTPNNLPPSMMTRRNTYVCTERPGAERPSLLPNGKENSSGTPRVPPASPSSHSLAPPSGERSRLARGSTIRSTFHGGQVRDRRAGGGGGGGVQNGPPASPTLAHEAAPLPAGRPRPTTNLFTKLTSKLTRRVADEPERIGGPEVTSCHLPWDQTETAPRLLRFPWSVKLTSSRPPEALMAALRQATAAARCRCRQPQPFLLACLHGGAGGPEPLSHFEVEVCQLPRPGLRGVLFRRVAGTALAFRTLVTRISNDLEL
The assay is described as follows: MARK4 ATPase (malachite green) enzyme inhibition assay. The following applies: MARK4 5 μM, 1 hour at 25°C, triplicates. In kind it is biochemical. Here is the method:
The inhibitory potential of the synthesized compounds against MARK4 was analysed using the malachite green based enzyme inhibition assay. The malachite green kinase inhibition assay is a colorimetric technique designed to assess kinase activity by detecting the release of inorganic phosphate (Pi) during phosphorylation. When a kinase transfers a phosphate group from ATP to its substrate, Pi is generated as a byproduct. The malachite green reagent interacts with Pi to produce a green-colored complex, which can be quantified using a spectrophotometer. This assay is modified to evaluate enzyme inhibition by measuring the reduction in Pi release in the presence of potential inhibitors. […] The protein’s highest activity, MARK4 (ligand-free), was utilised as a reference, and various ligand concentrations were added to determine the IC50 value. […] Finally 96 well plates were filled with 100 μL of the reaction mixture, which was then scanned at 620 nm using a multiscan ELISA reader. […]
MARKs, or microtubule-affinity regulating kinases, are a group of serine/threonine kinases found in mammals and other organisms ([Naz et al., 2013]). […] In the present study, we selected MARK4 as the target and assessed our compounds against it. […] Following this, attempts have been made to collect the fluorescence quenching of MARK4 in the presence of the best inhibitor (14). […]

Assay [2] has as its target T1, MARK4. The experiment in a line: Fluorescence quenching of MARK4. The following applies: data not included. In kind it is binding. The source says:
MARKs, or microtubule-affinity regulating kinases, are a group of serine/threonine kinases found in mammals and other organisms ([Naz et al., 2013]). These kinases play a critical role in phosphorylating microtubule-associated proteins, which then go on to regulate important processes like cell cycle progression and cytoskeletal dynamics. These kinases are quite abundant in the human brain and are known to be key players in the development and progression of various diseases including cancer and ADs ([Alam et al., 2023]). Despite their high importance, there has been limited research on the development of synthetic small molecules (inhibitors) against MARK4 ([Li et al., 2020]; [Voura et al., 2022]). In the present study, we selected MARK4 as the target and assessed our compounds against it. The kinase inhibitory potential of the compounds against MARK4 was examined using an ATPase inhibition assay ([Yousuf et al., 2015]; [Yousuf et al., 2022]). […] Following this, attempts have been made to collect the fluorescence quenching of MARK4 in the presence of the best inhibitor (14). […] The rationale behind the behaviour is currently under investigation.

On the set-up of assay [3]: method as in Pant et al., 2024. Particulars: compared with donepezil; ref Pant et al., 2024; cited from earlier work.

In turn, `COc1ccc(S(=O)(=O)N2CCN(c3cc(-c4ccsc4)ncn3)CC2)c(OC)c1` [Compound 9, 4-(4-((2,4-Dimethoxyphenyl)-sulfonyl)-piperazin-1-yl)-6-(thiophen-3-yl)-pyrimidine] had a 50% inhibitory concentration (IC50) on MARK4 [1] of 13 ± 0.63 µM. On MARK4 [1], `O=S(=O)(c1cccc2ccccc12)N1CCN(c2cc(-c3ccsc3)ncn2)CC1` [Compound 14, 4-(4-(Naphthalen-1-ylsulfonyl)-piperazin-1-yl)-6-(thiophen-3-yl)-pyrimidine] registered an IC50 of 7.52 ± 0.33 µM. The “fluorescence quenching of MARK4 emission” value at MARK4 [2] is recorded as “did not show appreciable quenching”. As to `Clc1ccc(Cc2ccnc(CCN3CCCCC3)n2)cc1` [a], the neuroprotective effects result in assay [3] is “neuroprotective effects better than donepezil”.

In general, IC50 refers to the concentration that gives 50% inhibition.
